Source: patent publication US20230391739A1, “ARYL DERIVATIVES FOR TREATING TRPM3 MEDIATED DISORDERS” (Katholieke Universiteit Leuven, priority 2020, published 2023)

target: T1, mouse TRPM3α2 (mTRPM3) ion channel (Mus musculus, UniProt J9SQF3); experiment: TRPM3 ion channel driven Ca2+ uptake, Fluo-4 AM assay, PS-stimulated (mTRPM3); type: cell-based; settings: TRPM3 overexpressing flip-in HEK293 cells stimulated with Pregnenolone sulfate (PS) 50 μM, activity ranges A, B, C
T1 construct: expressed in transfected cells; host or cells: flip-in HEK293
T1 sequence (J9SQF3 1-1709 isoform J9SQF3-12): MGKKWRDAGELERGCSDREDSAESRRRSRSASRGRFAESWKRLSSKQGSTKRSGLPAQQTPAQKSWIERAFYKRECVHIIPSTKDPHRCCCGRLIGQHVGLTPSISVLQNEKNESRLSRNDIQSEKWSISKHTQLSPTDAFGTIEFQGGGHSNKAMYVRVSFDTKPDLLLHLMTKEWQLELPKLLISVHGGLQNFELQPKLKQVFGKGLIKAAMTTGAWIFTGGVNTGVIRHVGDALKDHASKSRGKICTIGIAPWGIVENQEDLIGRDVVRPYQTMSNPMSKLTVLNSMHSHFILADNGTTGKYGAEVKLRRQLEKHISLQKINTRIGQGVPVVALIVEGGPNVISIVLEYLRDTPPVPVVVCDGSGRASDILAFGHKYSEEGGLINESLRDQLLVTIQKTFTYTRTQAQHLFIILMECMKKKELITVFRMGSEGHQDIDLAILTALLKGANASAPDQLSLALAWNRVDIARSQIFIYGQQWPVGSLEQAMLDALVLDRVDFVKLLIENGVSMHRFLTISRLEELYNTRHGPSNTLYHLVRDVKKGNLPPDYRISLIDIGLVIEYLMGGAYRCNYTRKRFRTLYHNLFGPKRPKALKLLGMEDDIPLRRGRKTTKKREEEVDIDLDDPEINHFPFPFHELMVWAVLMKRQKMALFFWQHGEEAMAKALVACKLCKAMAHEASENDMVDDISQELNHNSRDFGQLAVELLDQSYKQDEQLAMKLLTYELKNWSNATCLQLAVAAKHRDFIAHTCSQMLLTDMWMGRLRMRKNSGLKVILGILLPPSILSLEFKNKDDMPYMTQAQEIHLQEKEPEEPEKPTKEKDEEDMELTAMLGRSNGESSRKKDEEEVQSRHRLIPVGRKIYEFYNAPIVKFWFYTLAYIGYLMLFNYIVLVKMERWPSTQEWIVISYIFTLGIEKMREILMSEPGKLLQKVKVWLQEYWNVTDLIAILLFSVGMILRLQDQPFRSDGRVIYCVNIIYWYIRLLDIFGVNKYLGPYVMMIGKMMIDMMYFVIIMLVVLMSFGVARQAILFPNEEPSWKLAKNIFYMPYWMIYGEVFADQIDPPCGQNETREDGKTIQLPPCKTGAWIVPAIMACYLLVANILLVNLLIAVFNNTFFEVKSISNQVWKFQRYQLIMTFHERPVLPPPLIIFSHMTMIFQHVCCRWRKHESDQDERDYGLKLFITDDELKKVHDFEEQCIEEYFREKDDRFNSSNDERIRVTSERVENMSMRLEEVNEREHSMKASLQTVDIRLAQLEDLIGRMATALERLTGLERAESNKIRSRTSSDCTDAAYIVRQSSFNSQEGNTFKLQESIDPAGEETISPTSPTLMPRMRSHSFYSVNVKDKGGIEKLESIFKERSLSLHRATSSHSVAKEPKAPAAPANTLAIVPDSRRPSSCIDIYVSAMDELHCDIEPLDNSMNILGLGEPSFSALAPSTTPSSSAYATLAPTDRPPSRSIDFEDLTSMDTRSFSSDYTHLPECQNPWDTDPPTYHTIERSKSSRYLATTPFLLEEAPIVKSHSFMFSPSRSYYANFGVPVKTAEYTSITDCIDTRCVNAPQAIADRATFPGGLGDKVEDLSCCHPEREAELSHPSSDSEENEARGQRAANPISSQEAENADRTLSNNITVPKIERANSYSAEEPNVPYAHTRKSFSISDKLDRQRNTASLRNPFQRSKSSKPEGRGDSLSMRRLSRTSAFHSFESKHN
How it was run: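 Flp-In HEK293 cells overexpressing mTRPM3α2 were added, in Ca²⁺-free Krebs, to wells already holding compound and 50 μM pregnenolone sulfate in Ca²⁺-containing Krebs. Fluo-4 AM fluorescence (ex 485/em 535 nm) was read immediately. Percent inhibition was computed from RFU relative to PS/vehicle wells and a positive-control inhibitor.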

| IC50 | SMILES |
| --- | --- |
| 1 to 20 µM | Cc1oc2ccc(OCc3ccccc3)cc2c1C(=O)NCC1CCNC1 (stereo not shown) [Cpd 077, 5-(benzyloxy)-2-methyl-N-(pyrrolidin-3-ylmethyl)benzofuran-3-carboxamide] |
| < 1 µM | Cc1oc2ccc(OCc3ccccc3F)cc2c1C(=O)N[C@@H]1COC[C@@H]1O (single isomer, unassigned) [Cpd 329-En 1] |
| > 20 µM | Cc1oc2ccc(OCc3ccccc3)cc2c1C(=O)N1CCCC(N(C)C)C1 (stereo not shown) [Cpd 150, (5-(benzyloxy)-2-methylbenzofuran-3-yl)(3-(dimethylamino)piperidin-1-yl)methanone] |
| < 1 µM | Cc1oc2ccc(OCc3ccccc3)cc2c1C(=O)NC1CCC(O)C1 (stereo not shown) [Cpd 086, 5-(benzyloxy)-N-(3-hydroxycyclopentyl)-2-methylbenzofuran-3-carboxamide] |
| > 20 µM | Cc1oc2ccc(OCc3ccccc3)cc2c1C(=O)NC1CNC1 [Cpd 042, N-(azetidin-3-yl)-5-(benzyloxy)-2-methylbenzofuran-3-carboxamide] |
| 1 to 20 µM | Cc1oc2ccc(OCc3ccccc3)cc2c1C(=O)N[C@H]1CC[C@H](C(C)(C)O)CC1 [Cpd 210, 5-(benzyloxy)-N-(trans-4-(2-hydroxypropan-2-yl)cyclohexyl)-2-methylbenzofuran-3-carboxamide] |
| < 1 µM | Cc1cccc(COc2ccc3oc(C)c(C(=O)N[C@H]4CCNC4)c3c2)c1 [Cpd 084, (S)-2-methyl-5-((3-methylbenzyl)oxy)-N-(pyrrolidin-3-yl)benzofuran-3-carboxamide] |
| < 1 µM | Cc1oc2ccc(OCc3ccccc3F)cc2c1C(=O)NS(=O)(=O)C1CC1 [Cpd 175, N-(cyclopropylsulfonyl)-5-((2-fluorobenzyl)oxy)-2-methylbenzofuran-3-carboxamide] |
| 1 to 20 µM | Cc1oc2ccc(OCc3ccccc3)c(C#N)c2c1C(=O)NC1CNCC1(F)F (single isomer, unassigned) [Cpd 297-En 2, 5-(benzyloxy)-4-cyano-N-(4,4-difluoropyrrolidin-3-yl)-2-methylbenzofuran-3-carboxamide] |
| 1 to 20 µM | Cc1oc2ccc(OCc3ccc(C(F)(F)F)cc3)cc2c1C(=O)NC1CCN(C)CC1 [Cpd 234, 2-methyl-N-(1-methylpiperidin-4-yl)-5-((4-(trifluoromethyl)benzyl)oxy)benzofuran-3-carboxamide] |
| < 1 µM | Cc1ccccc1COc1ccc2oc(C)c(C(=O)O)c2c1 [Cpd 003, 2-methyl-5-((2-methylbenzyl)oxy)benzofuran-3-carboxylic acid] |
| < 1 µM | Cc1oc2ccc(OCc3ccccc3)cc2c1C(=O)Nc1ccccc1 [Cpd 058, 5-(benzyloxy)-2-methyl-N-phenylbenzofuran-3-carboxamide] |
| < 1 µM | Cc1oc2ccc(OCc3ccccc3F)cc2c1C(=O)N[C@H]1CCNC1 [Cpd 095, (S)-5-((2-fluorobenzyl)oxy)-2-methyl-N-(pyrrolidin-3-yl)benzofuran-3-carboxamide] |
| < 1 µM | COc1cccc(COc2ccc3oc(C)c(C(=O)O)c3c2)c1 [Cpd 012, 5-((3-methoxybenzyl)oxy)-2-methylbenzofuran-3-carboxylic acid] |
| < 1 µM | Cc1oc2ccc(OCc3ccccc3Cl)cc2c1C(=O)N[C@@H](CO)C(N)=O [Cpd 338, (S)—N-(1-Amino-3-hydroxy-1-oxopropan-2-yl)-5-((2-chlorobenzyl)oxy)-2-methylbenzofuran-3-carboxamide] |
| < 1 µM | Cc1oc2ccc(OCc3ccccc3F)cc2c1C(=O)NC(CO)C(N)=O (single isomer, unassigned) [Cpd 314-En 1] |
| 1 to 20 µM | COCCNC(=O)c1c(C)oc2ccc(OCc3ccccc3)cc12 [Cpd 044, 5-(benzyloxy)-N-(2-methoxyethyl)-2-methylbenzofuran-3-carboxamide] |
| < 1 µM | Cc1oc2ccc(OC(CO)c3ccccc3F)cc2c1C(=O)NC1(C(N)=O)CCC1 (single isomer, unassigned) [Cpd 345-En 2, N-(1-carbamoylcyclobutyl)-5-(1-(2-fluorophenyl)-2-hydroxyethoxy)-2-methylbenzofuran-3-carboxamide] |
| < 1 µM | Cc1oc2ccc(OCc3ccccc3)cc2c1C(=O)NCC(O)CO (stereo not shown) [Cpd 057, 5-(benzyloxy)-N-(2,3-dihydroxypropyl)-2-methylbenzofuran-3-carboxamide] |
| < 1 µM | Cc1oc2ccc(OCc3cccc(F)c3)cc2c1C(=O)N[C@H]1CCNC1 [Cpd 096, (S)-5-((3-fluorobenzyl)oxy)-2-methyl-N-(pyrrolidin-3-yl)benzofuran-3-carboxamide] |
| 1 to 20 µM | CCc1oc2ccc(OCc3cccc(F)c3)cc2c1C(=O)O [Cpd 015, 2-ethyl-5-((3-fluorobenzyl)oxy)benzofuran-3-carboxylic acid] |
| < 1 µM | Cc1oc2ccc(OCc3ccccc3)cc2c1C(=O)NC1CCCCC1 [Cpd 066, 5-(benzyloxy)-N-cyclohexyl-2-methylbenzofuran-3-carboxamide] |

| IC50 | SMILES |
| --- | --- |
| < 1 µM | Cc1oc2ccc(OCc3ccccc3)cc2c1C(=O)N[C@H]1CCN(S(C)(=O)=O)C1 [Cpd 215, (S)-5-(benzyloxy)-2-methyl-N-(1-(methylsulfonyl)pyrrolidin-3-yl)benzofuran-3-carboxamide] |
| 1 to 20 µM | Cc1oc2ccc(OCc3ccccc3)cc2c1C(=O)NC1CCN(C2COC2)CC1 [Cpd 208, 5-(benzyloxy)-2-methyl-N-(1-(oxetan-3-yl)piperidin-4-yl)benzofuran-3-carboxamide] |
| < 1 µM | Cc1oc2ccc(OCc3ccccc3)cc2c1C(=O)NC1(CO)COC1 [Cpd 092, 5-(benzyloxy)-N-(3-(hydroxymethyl)oxetan-3-yl)-2-methylbenzofuran-3-carboxamide] |
| < 1 µM | Cc1oc2ccc(OCc3ccccc3F)cc2c1C(=O)NC(C)(C)CO [Cpd 313, 5-((2-fluorobenzyl)oxy)-N-(1-hydroxy-2-methylpropan-2-yl)-2-methylbenzofuran-3-carboxamide] |
| < 1 µM | Cc1oc2ccc(OCc3ccccc3)cc2c1C(=O)NS(=O)(=O)C1CC1 [Cpd 133, 5-(benzyloxy)-N-(cyclopropylsulfonyl)-2-methylbenzofuran-3-carboxamide] |
| 1 to 20 µM | Cc1oc2ccc(COc3ccccc3F)cc2c1C(=O)NC(CO)C(N)=O (single isomer, unassigned) [Cpd 321-En 1, N-(1-amino-3-hydroxy-1-oxopropan-2-yl)-5-((2-fluorophenoxy)methyl)-2-methylbenzofuran-3-carboxamide] |
| < 1 µM | Cc1oc2ccc(OCc3ccccc3)cc2c1C(=O)NCC1CCCN1 (stereo not shown) [Cpd 078, 5-(benzyloxy)-2-methyl-N-(pyrrolidin-2-ylmethyl)benzofuran-3-carboxamide] |
| 1 to 20 µM | CN1CCC(NC(=O)c2coc3ccc(OCc4ccccc4)cc23)CC1 [Cpd 081, 5-(benzyloxy)-N-(1-methylpiperidin-4-yl)benzofuran-3-carboxamide] |
| < 1 µM | Cc1oc2ccc(OCc3ccccc3)cc2c1C(=O)N[C@@H]1CCCNC1=O [Cpd 107, (R)-5-(benzyloxy)-2-methyl-N-(2-oxopiperidin-3-yl)benzofuran-3-carboxamide] |
| > 20 µM | Cc1oc2ccc(OCc3ccccc3)cc2c1C(=O)NCC1CCN(C(=O)OC(C)(C)C)CC1 [Cpd 253, tert-butyl 4-((5-(benzyloxy)-2-methylbenzofuran-3-carboxamido)methyl)piperidine-1-carboxylate] |
| < 1 µM | Cc1oc2ccc(OCc3ccccc3)cc2c1C(=O)NC1CCCC1 [Cpd 046, 5-(benzyloxy)-N-cyclopentyl-2-methylbenzofuran-3-carboxamide] |
| < 1 µM | Cc1oc2ccc(OCc3ccccc3F)cc2c1C(=O)NC1(C(N)=O)CC1 [Cpd 326, N-(1-carbamoylcyclopropyl)-5-((2-fluorobenzyl)oxy)-2-methylbenzofuran-3-carboxamide] |
| 1 to 20 µM | Cc1oc2ccc(OCc3ccccc3)cc2c1C(=O)N[C@H]1CCCN(C2COC2)C1 [Cpd 206, (S)-5-(benzyloxy)-2-methyl-N-(1-(oxetan-3-yl)piperidin-3-yl)benzofuran-3-carboxamide] |
| 1 to 20 µM | COCCCNC(=O)c1c(C)oc2ccc(OCc3ccccc3)cc12 [Cpd 056, 5-(benzyloxy)-N-(3-methoxypropyl)-2-methylbenzofuran-3-carboxamide] |
| < 1 µM | COc1ccccc1COc1ccc2oc(C)c(C(=O)N[C@@H](CO)C(N)=O)c2c1 [Cpd 339, (S)—N-(1-Amino-3-hydroxy-1-oxopropan-2-yl)-5-((2-methoxybenzyl)oxy)-2-methylbenzofuran-3-carboxamide] |
| < 1 µM | Cc1oc2ccc(COc3ccccc3F)cc2c1C(=O)NC(C)C(N)=O (single isomer, unassigned) [Cpd 320-En 1] |
| < 1 µM | Cc1oc2ccc(OCc3ccccc3)c(C#N)c2c1C(=O)NC1CNCC1(F)F (single isomer, unassigned) [Cpd 297-En 1, 5-(benzyloxy)-4-cyano-N-(4,4-difluoropyrrolidin-3-yl)-2-methylbenzofuran-3-carboxamide] |
| 1 to 20 µM | Cc1oc2ccc(OCc3ccccc3CO)cc2c1C(=O)NC1CCN(C)CC1 [Cpd 192, 5-((2-(hydroxymethyl)benzyl)oxy)-2-methyl-N-(1-methylpiperidin-4-yl)benzofuran-3-carboxamide] |
| 1 to 20 µM | Cc1oc2ccc(OCc3ccccc3)cc2c1C(=O)N[C@H]1C[C@H]2C(=O)NCC(=O)N2C1 [Cpd 222, 5-(benzyloxy)-N-((7S,8aS)-1,4-dioxooctahydropyrrolo[1,2-a]pyrazin-7-yl)-2-methylbenzofuran-3-carboxamide] |
| > 20 µM | CCOC(=O)c1coc2ccc(OCc3ccccc3)cc12 [Cpd 029, ethyl 5-(benzyloxy)benzofuran-3-carboxylate] |
| 1 to 20 µM | Cc1oc2ccc(OCc3ccc(C(F)(F)F)cc3)cc2c1C(=O)N[C@H]1CCNC1 [Cpd 202, (S)-2-methyl-N-(pyrrolidin-3-yl)-5-((4-(trifluoromethyl)benzyl)oxy)benzofuran-3-carboxamide] |
